Test results taken from patent US7799821B2, “Therapeutic compounds” (Allergan, Inc., priority 2004, dated 2010).
Like-named read-outs stand apart in the source and are kept apart here.

Columns and labels:
human EP2 receptors = target: T1, human EP2 receptors (Homo sapiens, UniProt P43116); assay: Competition radioligand binding ([3H]PGE2), EP2; conditions: unit inferred; read-out: EP2 data Ki
T1 construct: expressed in transfected cells; host or cells: HEK 293
Procedure: Competition binding experiments were performed in a medium containing Hank's balanced salt solution, […], membranes (˜60 μg protein) or 2×10^5 cells from HEK 293 cells stably expressing human EP2 receptors, [^3H]PGE2 (10 nM) and various concentrations of test compounds in a total volume of 300 μl. Reaction mixtures were incubated at 23° C. for 60 min, and were filtered over Whatman GF/B filters under vacuum. Filters were washed three times with 5 ml ice-cold buffer containing 50 mM Tris/HCl (pH 7.3). Non-specific binding was estimated in the presence of excess unlabeled PGE2 (10 μM). Binding data fitted to the binding model for a single class of binding sites, using nonlinear regression analysis. IC50 values thus obtained were converted to Ki using the equation of Ki=(IC50/(1+[L]/KD) where [L] represents PGE2 concentration (10 nM) and KD the dissociation constant for [^3H]PGE2 at human EP2 receptors (40 nM).
(§1) HEK-293 cells stably expressing the human or feline FP receptor, or EP1, EP2, or EP4 receptors were washed with TME buffer, scraped from the bottom of the flasks, and homogenized for 30 sec using a Brinkman PT 10/35 polytron. TME buffer was added to achieve a final 40 ml volume in the centrifuge tubes (the composition of TME is 100 mM TRIS base, 20 mM MgCl2, […]; 10N HCl is added to achieve a pH of 7.4).
(§2) The cell homogenate was centrifuged at 19000 r.p.m. for 20 min at 4° C. using a Beckman Ti-60 rotor. The resultant pellet was resuspended in TME buffer to give a final 1 mg/ml protein concentration, as determined by Biorad assay. Radioligand binding competition assays vs. [^3H-]17 —phenyl PGF2α (5 nM) were performed in a 100 μl volume for 60 min. Binding reactions were started by adding plasma membrane fraction. The reaction was terminated by the addition of 4 ml ice-cold TRIS-HCl buffer and rapid filtration through glass fiber GF/B filters using a Brandel cell harvester. The filters were washed 3 times with ice-cold buffer and oven dried for one hour.
(§3) [^3H-] PGE2 (specific activity 180 Ci mmol) was used as the radioligand for EP receptors. [^3H] 17-phenyl PGF2α was employed for FP receptor binding studies. Binding studies employing EP1, EP2, EP4 and FP receptors were performed in duplicate in at least three separate experiments. A 200 μl assay volume was used. Incubations were for 60 min at 25° C. and were terminated by the addition of 4 ml of ice-cold 50 mM TRIS-HCl, followed by rapid filtration through Whatman GF/B filters and three additional 4 ml washes in a cell harvester (Brandel). Competition studies were performed using a final concentration of 5 nM [^3H]—PGE2, or 5 nM [^3H] 17-phenyl PGF2α and non-specific binding determined with 10^−5M of unlabeled PGE2, or 17-phenyl PGF2α, according to receptor subtype studied.

EP4 receptors = target: T2, EP4 receptors (Homo sapiens, UniProt P35408); assay: Radioligand binding ([3H]PGE2), EP4; conditions: unit inferred; read-out: EP4 data KI
T2 construct: expressed in transfected cells; host or cells: HEK-293
T2 sequence (P35408 whole entry): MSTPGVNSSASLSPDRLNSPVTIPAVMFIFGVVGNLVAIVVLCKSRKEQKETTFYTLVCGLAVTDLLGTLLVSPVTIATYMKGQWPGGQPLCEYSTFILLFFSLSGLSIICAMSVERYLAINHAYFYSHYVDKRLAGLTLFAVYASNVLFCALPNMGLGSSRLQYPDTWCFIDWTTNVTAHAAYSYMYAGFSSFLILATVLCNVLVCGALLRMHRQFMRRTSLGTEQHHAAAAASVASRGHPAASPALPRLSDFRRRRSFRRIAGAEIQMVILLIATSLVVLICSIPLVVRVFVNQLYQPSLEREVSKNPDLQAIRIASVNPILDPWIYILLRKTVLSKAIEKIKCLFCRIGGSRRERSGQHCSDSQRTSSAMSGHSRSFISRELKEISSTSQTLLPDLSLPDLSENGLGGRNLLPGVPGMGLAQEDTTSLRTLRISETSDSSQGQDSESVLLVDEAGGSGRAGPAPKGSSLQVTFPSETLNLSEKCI
Procedure: as §1, §2, §3

hEP2/Gqs5 = target: T3, hEP2/Gqs5 (Homo sapiens, UniProt P43116); assay: FLIPR calcium signal, hEP2; assay type: cell-based
T3 construct: expressed in transfected cells; host or cells: HEK-293(EBNA)
T3 sequence (P43116 whole entry): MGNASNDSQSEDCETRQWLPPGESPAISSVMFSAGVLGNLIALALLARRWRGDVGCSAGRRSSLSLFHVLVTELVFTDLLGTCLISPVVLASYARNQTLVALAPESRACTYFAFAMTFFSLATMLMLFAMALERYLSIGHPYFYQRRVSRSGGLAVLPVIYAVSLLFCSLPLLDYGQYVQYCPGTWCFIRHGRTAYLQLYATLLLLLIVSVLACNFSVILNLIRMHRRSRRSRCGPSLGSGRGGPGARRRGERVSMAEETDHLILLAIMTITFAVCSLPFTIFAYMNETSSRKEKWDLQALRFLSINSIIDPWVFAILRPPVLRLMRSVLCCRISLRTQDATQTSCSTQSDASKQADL
Procedure: (§4) HEK-293(EBNA) cells, stably expressing one type or subtype of recombinant human prostaglandin receptors (prostaglandin receptors expressed: hDP/Gqs5; hEP1; hEP2/Gqs5; hEP3A/Gqi5; hEP4/Gqs5; hFP; hIP; hTP), were cultured in 100 mm culture dishes in high-glucose DMEM medium containing 10% fetal bovine serum, 2 mM 1-glutamine, 250 μg/ml geneticin (G418) and 200 μg/ml hygromycin B as selection markers, and 100 units/ml penicillin G, 100 μg/ml streptomycin and 0.25 μg/ml amphotericin B. • (b) Calcium Signal Studies on the FLIPR™
(§5) Cells were seeded at a density of 5×10^4 cells per well in Biocoat® Poly-D-lysine-coated black-wall, clear-bottom 96-well plates (Becton-Dickinson) and allowed to attach overnight in an incubator at 37° C. Cells were then washed two times with HBSS-HEPES buffer (Hanks Balanced Salt Solution without bicarbonate and phenol red, 20 mM HEPES, pH 7.4) using a Denley Cellwash plate washer (Labsystems). After 45 minutes of dye-loading in the dark, using the calcium-sensitive dye Fluo-4 AM at a final concentration of 2 μM, plates were washed four times with HBSS-HEPES buffer to remove excess dye leaving 100 μl in each well. Plates were re-equilibrated to 37° C. for a few minutes.
(§6) Cells were excited with an Argon laser at 488 nm, and emission was measured through a 510-570 nm bandwidth emission filter (FLIPR™, Molecular Devices, Sunnyvale, Calif.). Drug solution was added in a 50 μl volume to each well to give the desired final concentration. The peak increase in fluorescence intensity was recorded for each well. On each plate, four wells each served as negative (HBSS-HEPES buffer) and positive controls (standard agonists: BW245C (hDP); PGE2 (hEP1; hEP2/Gqs5; hEP3A/Gqi5; hEP4/Gqs5); PGF2α (hFP); carbacyclin (hIP); U-46619 (hTP), depending on receptor). The peak fluorescence change in each drug-containing well was then expressed relative to the controls.
(§7) Compounds were tested in a high-throughput (HTS) or concentration-response (CoRe) format. In the HTS format, forty-four compounds per plate were examined in duplicates at a concentration of 10^−5 M. To generate concentration-response curves, four compounds per plate were tested in duplicates in a concentration range between 10^−5 and 10^−11 M. The duplicate values were averaged. In either, HTS or CoRe format each compound was tested on at least 3 separate plates using cells from different passages to give an n≧3.

[1] = target: T4, HEK-EBNA cells expressing a PG EP2 receptor subtype (Homo sapiens, UniProt P43116); assay: cAMP assay, EP2; assay type: cell-based; conditions: unit inferred; read-out: EP2 data cAMP EC50
T4 construct: expressed in transfected cells; host or cells: HEK-EBNA
T4 sequence (P43116 whole entry): as above
Procedure: A 384-well drug plate was prepared to contain 6 test compounds, PGE2 and cAMP in 16 serial dilutions in triplicate, using a Biomek station. HEK-EBNA cells expressing a target PG receptor subtype (EP2 or EP4) were suspended in a stimulation buffer (HBSS, 0.1% BSA, 0.5 mM IBMX and 5 mM HEPES, pH 7.4) in a density of 10^4 cells/5 μl. The reaction was initiated by mixing 5 μL drug dilutions with 5 μl of HEK-EBNA cells in a well, carried out for 30 min at room temperature, and followed by the addition of 5 μl anti-cAMP acceptor beads in the control buffer with Tween-20 (25 mM NaCl, 0.03% Tween-20, 5 mM HEPES, pH7.4). After 30 min in the dark at room temperature, the mixtures were incubated with 15 μl biotinylated-cAMP/strepavidin donor beads in Lysis/Detection buffer (0.1% BSA, 0.3% Tween-20 and 5 mM HEPES, pH7.4) for 45 min at the room temperature. Fluorescence changes were read using a Fusion-alpha HT microplate reader.

hEP3A/Gqi5 = target: T5, hEP3A/Gqi5 (Homo sapiens, UniProt P43115); assay: FLIPR calcium signal, hEP3A; assay type: cell-based
T5 construct: expressed in transfected cells; host or cells: HEK-293(EBNA)
T5 sequence (P43115 1-390): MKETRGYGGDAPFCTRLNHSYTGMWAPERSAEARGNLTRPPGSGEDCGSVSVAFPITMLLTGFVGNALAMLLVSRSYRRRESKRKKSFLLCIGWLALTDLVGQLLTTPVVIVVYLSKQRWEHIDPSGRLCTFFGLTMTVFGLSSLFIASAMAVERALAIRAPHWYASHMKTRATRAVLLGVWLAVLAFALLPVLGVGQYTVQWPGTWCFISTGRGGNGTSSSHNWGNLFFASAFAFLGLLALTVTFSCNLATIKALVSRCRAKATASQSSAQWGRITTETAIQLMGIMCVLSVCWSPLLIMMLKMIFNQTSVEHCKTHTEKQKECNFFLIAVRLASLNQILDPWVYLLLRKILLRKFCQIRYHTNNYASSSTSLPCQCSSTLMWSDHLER
Procedure: as §4, §5, §6, §7

hEP4/Gqs5 = target: T6, hEP4/Gqs5 (Homo sapiens, UniProt P35408); assay: FLIPR calcium signal, hEP4; assay type: cell-based; conditions: unit inferred; read-out: EP4 data flipr EC50
T6 construct: expressed in transfected cells; host or cells: HEK-293(EBNA)
T6 sequence (P35408 whole entry): as the sequence (P35408 whole entry) above
Procedure: as §4, §5, §6, §7

[2] = unit inferred, other columns of the table in nM, read-out: EP2 data flipr EC50
[3] = read-out: Other Receptors EC50 hEP3A
[4] = FLIPR Ca2+ signal, HEK-293(EBNA), read-out: FUNCTIONAL EC50 HEP2
[5] = FLIPR Ca2+ signal, HEK-293(EBNA), read-out: FUNCTIONAL EC50 HEP3A

T1 sequence (P43116 whole entry): as the sequence (P43116 whole entry) above

Row | SMILES | Ki (human EP2 receptors) [nM] | Ki (EP4 receptors) [nM] | EC50 (hEP2/Gqs5; [2]) [nM] | EC50 [1] [nM] | EC50 (hEP3A/Gqi5; [3]) [nM] | EC50 (hEP2/Gqs5; [4]) [nM] | EC50 (hEP3A/Gqi5; [5]) [nM] | EC50 (hEP4/Gqs5) [nM]
1 | CCCCC(O)c1ccc(N2C(=O)CC[C@@H]2COCc2ccc(C(=O)O)s2)cc1 (some centres unmarked) | 387 | > 10000 | 212 | 8 |  |  |  | 
2 | CCCCCC(O)c1ccc(N2C(=O)CC[C@@H]2/C=C/Cc2ccc(C(=O)O)s2)cc1 (some centres unmarked) [drawing 172] |  |  |  |  | 1410 |  |  | 
3 | CCCCCCC(O)c1ccc(N2C(=O)CC[C@@H]2COCc2ccc(C(=O)O)s2)cc1 (single isomer, unassigned) [drawing 181] | 201 | 3290 | 49 | 4 | 621 |  |  | 
4 | CCCC1(C(O)c2cccc([C@H]3[C@H](O)CC(=O)[C@@H]3C/C=C\CCCC(=O)O)c2)CCC1 (some centres unmarked) |  |  |  |  |  | 5290 | 1700 | 
5 | COC(=O)CCC/C=C\C[C@@H]1[C@@H](c2ccc(C(C)(C)C)cc2)[C@H](O)C[C@H]1Cl |  |  |  |  |  | > 10000 | > 10000 | 
6 | CC(C)(C)c1ccc(N2C(=O)CC[C@@H]2COCc2cccc(C(=O)O)c2)cc1 |  | > 10000 | > 10000 |  |  |  |  | > 10000
7 | CC(C)(C)c1ccc(N2C(=O)CC[C@@H]2COCCCCC(=O)O)cc1 |  | > 10000 | > 10000 |  |  |  |  | > 10000
8 | CCCCCC(O)c1ccc(N2C(=O)CC[C@@H]2COc2ccc(C(=O)O)cc2)cc1 (some centres unmarked) [drawing 185] | 22700 | 8750 | 7280 |  |  |  |  | 
9 | O=C(O)c1ccc(COC[C@H]2CCC(=O)N2c2ccc(C(O)Cc3ccccc3)cc2)o1 (some centres unmarked) | 2290 | > 10000 | 1230 | 148 |  |  |  | 
10 | CCCCCC(=O)c1ccc(N2C(=O)CC[C@@H]2COCc2ccc(C(=O)O)s2)cc1 | 163 | > 10000 | 215 | 8 |  |  |  | 
11 | CCCCCC(O)c1ccc(N2C(=O)CC[C@@H]2/C=C/Cc2ccc(C(=O)O)s2)cc1 (some centres unmarked) [drawing 144] | 1380 | > 10000 | 226 | 15 |  |  |  | 
